Source: US6177437A, “Inhibitors of Herpes Simplex virus uracil-DNA glycosylase” (University of Massachusetts Medical Center, priority 1999, dated 2001)
Like-named read-outs stand apart in the source and are kept apart here. Values belong to the compound of their own block, whether it stands above or below them.

Tests used:
[1] = target: T1, HSV1 uracil-DNA glycosylase (HSV1 UDG) (Human herpesvirus 1, UniProt P10186); conditions: cited from earlier work
T1 construct: made in house

[2] = target: T2, human (HeLa) uracil-DNA glycosylase (Homo sapiens, UniProt P13051); conditions: cited from earlier work; for IC50: compounds 4 and 5, from Focher et al., 1993, read-out: IC50 Human-UDG
T2 construct: The viral and human (HeLa) uracil-DNA glycosylases are isolated with conventional enzyme purification protocols; endogenous in cells; host or cells: HeLa

[3] = target: T1, HSV1 uracil-DNA glycosylase (HSV1 UDG); assay: Inhibition of HSV1 uracil-DNA glycosylase, [3H]uracil release from [3H]dUMP-containing DNA; type: biochemical; conditions: for Activity against viral UDG: at 200 μM; for Potency against HSV1 UDG relative to parent compound: hexAU derivatives vs 4, octAU derivatives vs 5
Description: (§1) Compounds 2-8 were screened against purified HSV1 and human (HeLa) uracil-DNA glycosylases which were isolated by conventional enzyme purification protocols^1. Assays for inhibition by the compounds were conducted as described in the literature^1 by measuring [^3 H]uracil release from [^3 H]dUMP-containing DNA, in the presence of varying concentrations of test compounds. Control assays contained the same concentration of diluent, dimethylsulfoxide. IC50 s (the concentration of compound that causes half-maximal inhibition of [^3 H]uracil release from [^3 H]dUMP-containing DNA) for each of the compounds were calculated.
(§2) a. Isolation and assay of uracil-DNA glycosylases. The viral and human (HeLa) uracil-DNA glycosylases are isolated with conventional enzyme purification protocols (Focher et al., 1993). Both long and short forms of the HSV1 enzyme have been cloned and expressed in E. Coli (Argnani et al., 1995), and have essentially identical enzymatic properties and inhibitor sensitivities. Assays for new inhibitors of viral and human UDG are done as described (Focher et al., 1993) by measuring [^3 H]uracil release from [^3 H]dUMP-DNA. Mechanism studies involve classical variable substrate assays to determine if inhibition is competitive with substrate or product.

[4] = target: T2, human (HeLa) uracil-DNA glycosylase; assay: Inhibition of human (HeLa) uracil-DNA glycosylase, [3H]uracil release from [3H]dUMP-containing DNA; type: biochemical; conditions: Table 3; read-out: IC50 Human-UDG
Description: as §1, §2

[5] = Solubility observations (assay medium, water); type: physicochemical
[6] = Table 1, from literature (footnote a), read-out: IC50
[7] = compounds 4 and 5, from Focher et al., 1993, read-out: IC50 HSV1-UDG
[8] = Table 2, read-out: IC50, experimental value
[9] = Table 3, read-out: IC50 HSV1-UDG

T1 sequence (P10186 whole entry): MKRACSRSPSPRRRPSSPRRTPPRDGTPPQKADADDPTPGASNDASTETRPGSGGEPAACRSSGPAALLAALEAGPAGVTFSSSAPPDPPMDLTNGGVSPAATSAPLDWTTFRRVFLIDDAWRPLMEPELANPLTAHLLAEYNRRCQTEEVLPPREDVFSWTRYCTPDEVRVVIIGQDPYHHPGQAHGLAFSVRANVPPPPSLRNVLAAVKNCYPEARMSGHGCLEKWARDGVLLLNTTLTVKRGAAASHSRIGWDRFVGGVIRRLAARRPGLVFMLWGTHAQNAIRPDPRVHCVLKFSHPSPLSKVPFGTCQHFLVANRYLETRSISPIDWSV
T2 sequence (P13051 whole entry): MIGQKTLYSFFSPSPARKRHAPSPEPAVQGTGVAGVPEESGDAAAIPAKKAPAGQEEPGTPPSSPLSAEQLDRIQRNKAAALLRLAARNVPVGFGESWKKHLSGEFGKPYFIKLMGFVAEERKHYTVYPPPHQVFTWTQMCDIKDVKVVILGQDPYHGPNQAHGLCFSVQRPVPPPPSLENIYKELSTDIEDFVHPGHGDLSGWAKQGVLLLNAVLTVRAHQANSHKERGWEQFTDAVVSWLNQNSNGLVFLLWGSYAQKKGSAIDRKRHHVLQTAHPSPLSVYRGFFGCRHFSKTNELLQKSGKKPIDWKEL

Structure (SMILES): CCCCCCc1ccc(Nc2cc(O)nc(O)n2)cc1 [Compound 4, 6-(4-n-Hexylanilino)uracil]
IC50 [1, 6]: 30 µM
IC50 [1, 7]: 30 µM
IC50 [2]: > 300 µM

IC50 [3, 8]: 35 µM
IC50 [4]: > 200 µM
Structure (SMILES): CCCCCCCCCCc1ccc(Nc2cc(O)nc(O)n2)cc1 [Compound 6, 6-(4-Decylanilino)uracil]

Structure (SMILES): CCc1ccc(Nc2cc(O)nc(O)n2)cc1 [Compound 2]
IC50 [1, 6]: 500 µM

Potency against HSV1 UDG, fold weaker than 4 [3]: 3 fold
IC50 ([3]; read-out: IC50 HSV1-UDG): 90 µM
Structure (SMILES): CCCCCCc1ccc(Nc2cc(=O)[nH]c(=O)n2CCCO)cc1 [Compound 22, 1-(3-Hydroxypropyl)-6-(4-hexylanilino)uracil]

IC50 ([3]; text b184, read-out: IC50 HSV1 UDG): 1000 µM
Structure (SMILES): Nc1cc(=O)[nH]c(=O)[nH]1 [6-Aminouracil, reference compound]
Inhibition of human UDG ([2]; reported (Caradonna et al, 1981)): inhibit weakly

Structure (SMILES): O=c1cc[nH]c(=O)[nH]1 [uracil]
Mode of inhibition of human UDG ([2]; reported (Griffiths 1995)): non-competitive

IC50 ([3]; read-out: IC50, experimental value): 150 µM
IC50 [4]: > 300 µM
Structure (SMILES): CCCCCCCCc1ccc(Oc2cc(=O)[nH]c(=O)[nH]2)cc1 [Compound 9, 6-(4-Octylphenoxy)uracil]

IC50 [4]: > 200 µM
Structure (SMILES): CCCCCCc1ccc(Nc2cc(=O)[nH]c(=O)n2C)cc1 [Compound 16, 1-Methyl-6-(4-hexylanilino)uracil]

Activity against viral UDG [3]: inactive
Structure (SMILES): CCCCCCc1ccc(Nc2[nH]c(=O)[nH]c(=O)c2C)cc1 [(4-n-hexylanilino)thymine, 6-(4-Hexylanilino)thymine]

IC50 [4]: > 200 µM
Structure (SMILES): CCCCCCc1ccc(Nc2cc(=O)[nH]c(=O)n2CCC)cc1 [Compound 18, 1-Propyl-6-(4-hexylanilino)uracil]

IC50 [3, 9]: > 100 µM
Structure (SMILES): CCCCCCc1ccc(Nc2cc(=O)[nH]c(=O)n2CCCOC)cc1 [Compound 20, 1-(3-Methoxypropyl)-6-(4-hexylanilino)uracil]

IC50 [3, 9]: 10 µM
Potency against HSV1 UDG relative to parent compound [3]: as a potent an inhibitor as 5
Structure (SMILES): CCCCCCCCc1ccc(Nc2cc(=O)[nH]c(=O)n2CCO)cc1 [Compound 25, 1-(2-Hydroxyethyl)-6-(4-octylanilino)uracil]

IC50 [3, 8]: 25 µM
Structure (SMILES): CCCCCCCCOc1ccc(Nc2cc(O)nc(O)n2)cc1 [Compound 8, 6-(4-Octyloxyanilino)uracil]

IC50 [3, 8]: 30 µM
Structure (SMILES): CCCCCCOc1ccc(Nc2cc(O)nc(O)n2)cc1 [Compound 7, 6-(4-Hexyloxyanilino)uracil]

IC50 [3, 9]: 20 µM
Potency against HSV1 UDG relative to parent compound [3]: equipotent with 4
Structure (SMILES): CCCCCCc1ccc(Nc2cc(=O)[nH]c(=O)n2CCO)cc1 [Compound 21, 1-(2-Hydroxyethyl)-6-(4-hexylanilino)uracil]

IC50 [3, 9]: 15 µM
Potency against HSV1 UDG relative to parent compound [3]: nearly as potent
Structure (SMILES): CCCCCCCCc1ccc(Nc2cc(=O)[nH]c(=O)n2CCOC)cc1 [Compound 24, 1-(2-Methoxyethyl)-6-(4-octylanilino)uracil]

Mode of inhibition of HSV1 UDG [3]: competitive with DNA
Water solubility [5]: poor water solubility
Structure (SMILES): CCCCCCCCc1ccc(Nc2cc(=O)[nH]c(=O)[nH]2)cc1 [Compound 5, 6-(4-n-octylanilino)uracil]
IC50 [1, 6]: 8 µM
IC50 [1, 7]: 8 µM
IC50 [2]: > 300 µM

Activity against viral UDG [3]: inactive
Structure (SMILES): CCCCCCc1ccc(Nc2cc(=O)n(CC)c(=O)[nH]2)cc1 [3-ethyl-6-(4-n-hexylanilino)uracil]

IC50 [3, 9]: > 100 µM
Structure (SMILES): CCCCCCc1ccc(Nc2cc(=O)[nH]c(=O)n2CCOC)cc1 [Compound 19, 1-(2-Methoxyethyl)-6-(4-hexylanilino)uracil]

IC50 [4]: > 200 µM
Structure (SMILES): CCCCCCc1ccc(Nc2cc(=O)[nH]c(=O)n2CC)cc1 [Compound 17, 1-Ethyl-6-(4-hexylanilino)uracil]
